Consider 1 molecule from patent US20230256033A1, “PHYSIOLOGICALLY ACCEPTABLE COMPOSITIONS CONTAINING MICROORGANISMS OR MICROBIAL PRODUCTS” (FLAGSHIP PIONEERING INNOVATIONS VI, LLC, priority 2020, published 2023).

In this assay the test system is LPS induced NFkB activity in THP1-Blue™ cells. In words: Suppression of LPS induced NFkB in human monocyte THP-1 reporter cells (THP1-BLUE NFkB, SEAP). The format is cell-based. The following applies: IKK 16 at 2 μM; LPS 100 ng/mL 18 hours.

Regarding `O=C(c1ccc(Nc2nccc(-c3cc4ccccc4s3)n2)cc1)N1CCC(N2CCCC2)CC1` [IKK 16], the “Suppression of LPS induced NFkB activity in THP1-Blue ™ cells (control for suppression)” value is reported as −80%.
